From US11111251B2, “Positive allosteric modulators of the muscarinic acetylcholine receptor M1” (Vanderbilt University, priority 2016, dated 2021)
pEC50: −log10 of the molar value. Like-named read-outs stand apart in the source and are kept apart here.

Target: T1, human mAChR M1 (Homo sapiens, UniProt P11229)
T1 sequence (P11229 1-460): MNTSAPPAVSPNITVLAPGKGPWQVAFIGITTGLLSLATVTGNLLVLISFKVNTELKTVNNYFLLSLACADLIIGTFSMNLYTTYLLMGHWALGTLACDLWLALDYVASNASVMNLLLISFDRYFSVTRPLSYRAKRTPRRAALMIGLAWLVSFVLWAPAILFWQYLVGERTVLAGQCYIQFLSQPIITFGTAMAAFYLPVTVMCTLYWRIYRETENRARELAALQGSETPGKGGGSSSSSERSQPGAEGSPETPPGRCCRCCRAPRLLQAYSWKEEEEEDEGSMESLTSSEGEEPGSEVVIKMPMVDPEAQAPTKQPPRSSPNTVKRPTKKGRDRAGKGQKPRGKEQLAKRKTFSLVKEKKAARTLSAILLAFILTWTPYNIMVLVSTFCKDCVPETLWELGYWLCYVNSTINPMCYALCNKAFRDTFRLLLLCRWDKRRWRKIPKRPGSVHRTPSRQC
Test: mAChR M1 cell-based functional assay: calcium mobilization, positive allosteric modulator mode (increase in EC20 acetylcholine response)
Conditions: for Emax: read-out: Human M1 Emax (%)
In short: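 Calcium-flux assay in CHO-K1 cells stably expressing human M1, loaded with Fluo-4 AM (50 min, 37 °C) and read at 1 Hz. Compound (11-point, 1:3 series) was added at 4 s, EC20 acetylcholine at 144 s and EC80 at 230 s. PAM activity is the concentration-dependent rise in the EC20 response, fitted with a four-parameter logistic.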

[1] = Table 2, human M1, read-out: Human M1 EC50

| SMILES | pEC50 [1] | Emax (Table 2, human M1) | pEC50 (Table 1, mAChR M1 cell-based functional assay, PAM mode, species not given, read-out: EC50) |
| --- | --- | --- | --- |
| Cn1ncc2nc(C(=O)NC[C@H]3CCCO3)cc(Cc3ccc(-c4cscn4)cc3)c21 [Compound 495, 1-methyl-N-[[(2R)-tetrahydrofuran-2-yl]methyl]-7-[(4-thiazol-4-ylphenyl)methyl]-pyrazolo[4,3-b]pyridine-5-carboxamide] | 5.41 | 65.1% | – |
| Cc1nc(-c2ccc(Cc3cc(C(=O)NC4(C)COC4)nc4ccsc34)cc2)cs1 [Compound 177, N-(3-methyloxetan-3-yl)-7-[[4-(2-methylthiazol-4-yl)phenyl]methyl]thieno[3,2-b]pyridine-5-carboxamide] | < 5.00 | 39.7% | – |
| Cc1nn(C)cc1-c1ccc(Cc2cc(C(=O)N[C@H]3CCC[C@@H]3O)nc3ccsc23)cc1 [Compound 247, 7-[[4-(1,3-dimethylpyrazol-4-yl)phenyl]methyl]-N-[(1S,2S)-2-hydroxycyclopentyl]thieno[3,2-b]pyridine-5-carboxamide] | 5.39 | 30.6% | – |
| Cn1cc(-c2ccc(Oc3cc(C(=O)N[C@H]4CCOC[C@@H]4O)nc4ccsc34)c(F)c2)cn1 [Compound 7] | – | – | 5.49 |

Continued, values first:

| pEC50 [1] | Emax (Table 2, human M1) | pEC50 (Table 1, mAChR M1 cell-based functional assay, PAM mode, species not given, read-out: EC50) | SMILES |
| --- | --- | --- | --- |
| 5.66 | 82.1% | – | CO[C@@H]1CCCC[C@H]1NC(=O)c1cc(Cc2ccc(C)nc2)c2scc(C)c2n1 [Compound 106, N-[(1R,2R)-2-methoxycyclohexyl]-3-methyl-7-[(6-methyl-3-pyridyl)methyl]thieno[3,2-b]pyridine-5-carboxamide] |
| 7.66 | 81.5% | – | O=C(N[C@H]1COCC[C@@H]1O)c1cc(Cc2ccc(-c3nccs3)cc2)c2sccc2n1 [Compound 371] |
| 5.45 | 78.8% | – | Cc1nc(-c2ccc(Cc3cc(C(=O)N[C@H]4CCOC4)nc4ccsc34)cc2)co1 [Compound 161, 7-[[4-(2-methyloxazol-4-yl)phenyl]methyl]-N-[(3S)-tetrahydrofuran-3-yl]thieno[3,2-b]pyridine-5-carboxamide] |
| 6.55 | 83.5% | – | Cn1ccc(-c2ccc(Cc3cc(C(=O)NCC4CCOCC4)nc4ccn(C)c34)cc2)n1 [Compound 476, 1-methyl-7-[[4-(1-methylpyrazol-3-yl)phenyl]methyl]-N-(tetrahydropyran-4-ylmethyl)pyrrolo[3,2-b]pyridine-5-carboxamide] |
| 7.19 | 58.6% | – | Cn1ccc2nc(C(=O)N[C@H]3CCC[C@@H]3O)cc(Cc3ccc(-c4nccs4)cc3)c21 [Compound 483, N-[(1S,2S)-2-hydroxycyclopentyl]-1-methyl-7-[(4-thiazol-2-ylphenyl)methyl]pyrrolo[3,2-b]pyridine-5-carboxamide] |
| 6.43 | 69.7% | – | Cc1nc(-c2ccc(Cc3cc(C(=O)N[C@H]4CCC[C@@H]4O)nc4c(C)csc34)cc2)co1 [Compound 331, N-[(1S,2S)-2-hydroxycyclopentyl]-3-methyl-7-[[4-(2-methyloxazol-4-yl)phenyl]methyl]thieno[3,2-b]pyridine-5-carboxamide] |
